# Literature values as cited in patent US8476252B2, “Pharmaceutical emulsion compositions comprising progestogen” (Besins Healthcare Luxembourg SARL, priority 2010, dated 2013).
# Tested on: TBI patients
# Settings: Xiao et al 2008, Wright et al 2007
structure (smiles),measurement,setting,value
"CC(=O)[C@H]1CC[C@H]2[C@@H]3CCC4=CC(=O)CC[C@]4(C)[C@H]3CC[C@]12C [progesterone, pregn-4-ene-3,20-dione]",Safety and tolerability,TBI patients,safe and well tolerated
same,Mortality,administration of progesterone to TBI patients,decreased mortality
